Experimental data: patent publication US11940442B2, “Method and system for determining integrated metabolic baseline and potential of living cells” (AGILENT TECHNOLOGIES, INC., priority 2015, dated 2024)

Tests used:
C2C12 myotubes = assay: Metabolic potential (OCR/ECAR, XFp) after co-injection of FCCP and oligomycin, etomoxir treatment; assay type: cell-based; details: 40 μM etomoxir, 1 hour; stress 0.5 μM FCCP + 1.0 μM oligomycin
Method: C2C12 myoblast cells were seeded into XFp microplates at a density of 1.2×10^4 cells/well. […] During differentiation, medium was replaced with fresh differentiation medium every other day. […] Metabolic potential was measured using an XFp Extracellular Flux Analyzer (Seahorse Bioscience) and XFp assay cartridges (Seahorse Bioscience). Briefly, microplates containing etomoxir-treated and control myotubes were placed in the XFp Extracellular Flux Analyzer, and initial OCR and ECAR measurements are taken.

[1] = tested on: RAW 264.7 macrophage cells; assay: Metabolic potential (OCR/ECAR, XFp) after co-injection of FCCP and oligomycin, LPS treatment; assay type: cell-based; details: 1 μg/ml LPS, 1 hour; stress 0.5 μM FCCP + 1.0 μM oligomycin
Method: Cells treated with LPS received media containing 1 μg/ml LPS, control cells received assay media.
(§1) Metabolic potential was measured using an XFp Extracellular Flux Analyzer (Seahorse Bioscience) and XFp assay cartridges (Seahorse Bioscience). Briefly, microplates containing LPS-treated and control cells were placed in the XFp Extracellular Flux Analyzer, and initial OCR and ECAR measurements are taken.

[2] = tested on: RAW 264.7 macrophage cells; details: RAW 264.7 cells, in the presence of 1.0 μM oligomycin; FCCP 0.125-2 μM tested
Excerpt: Cultured cells are first seeded into the wells of an appropriate microplate (also referred to herein as a multi-well plate) for the instrument being used (as described above). • 2. After adherence to the microplate, cells are either allowed to grow as desired, or may be assayed for metabolic potential immediately. • 3. At time of assay, cell culture media is exchanged for a volume of assay media appropriate for the microplate being used to create a cell sample including a plurality of cells disposed in a media. The microplate is allowed to incubate for 1 h at 37° C. in a non-CO2 incubator. • 4. […] To titrate optimal FCCP concentration in an XFe96 instrument, RAW 264.7 macrophages are exposed to varying concentrations of the drug, and the resulting OCR is measured. In this example, cells were first treated with 1.0 μM oligomycin (final concentration in 200 μl assay media), OCR was measured, and then one of the following concentrations of FCCP was added: 0.125, 0.25, 0.5, 1.0, or 2.0 μM (final concentration in 222 μl assay media). […] The metabolic potential of the cell sample may be determined by (i) providing the initial oxygen consumption rate, the initial extracellular acidification rate, the subsequent oxygen consumption rate, and the subsequent extracellular acidification rate to a software program, and (ii) using the software program to calculate the metabolic potential. […]

C2C12 myoblast cells = assay: Metabolic potential (OCR/ECAR, XFp) after co-injection of FCCP and oligomycin, UK5099 treatment; assay type: cell-based; details: 2 μM UK5099, 1 hour; stress 0.5 μM FCCP + 1.0 μM oligomycin
Method: C2C12 myoblast cells were seeded into XFp microplates at a density of 1.2×10^4 cells/well.
Treated cells received media containing 2 μM UK5099 (a potent inhibitor of the mitochondrial pyruvate carrier), control cells received assay media.
as §1, with “UK5099-treated” for “LPS-treated”

CCOC(=O)[C@@]1(CCCCCCOc2ccc(Cl)cc2)CO1 [etomoxir]
aerobic metabolic potential compared to control myotubes (C2C12 myotubes): increased
glycolytic metabolic potential compared to control myotubes (C2C12 myotubes): slightly decreased

lipopolysaccharide [LPS]
aerobic metabolic potential relative to control cells [1]: increased
glycolytic potential relative to control cells [1]: roughly unchanged

N#CC(C#N)=NNc1ccc(OC(F)(F)F)cc1 [FCCP, carbonyl cyanide p-trifluoromethoxyphenylhydrazone]
FCCP concentration at which maximal OCR is achieved [2]: 0.5 µM

N#C/C(=C\c1cn(-c2ccccc2)c2ccccc12)C(=O)O [UK5099]
aerobic metabolic potential relative to control cells (C2C12 myoblast cells): decreased
glycolytic metabolic potential relative to control cells (C2C12 myoblast cells): decreased
